Data taken from ChEMBL document CHEMBL1201862, “PubChem BioAssay data set” (2004).
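Each compound was tested at five concentrations against cells in 96-well plates for 48 hours. GI50 is the concentration that inhibits growth by half.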 Calls of active or inactive are those of the source. Cut-off read from the data, not from the text of the source: active = GI50 up to about 1.1 µM and inactive = higher.

Assays:
Experiment in all cases: NCI-60 cell line screen, 48 h
[1] = system: KM-20L2
[2] = system: DMS-114
[3] = system: OVCAR-3
[4] = system: CCRF-CEM
[5] = system: LOX IMVI
[6] = system: A549
[7] = system: Malme-3M
[8] = system: SF-539
[9] = system: SK-MEL-5
[10] = system: HL-60
[11] = system: SNB-19
[12] = system: DMS-273
[13] = system: RXF 393
[14] = system: DLD-1
[15] = system: A498
[16] = system: NCI-H23
[17] = system: UO-31
[18] = system: UACC-257
[19] = system: TK-10
[20] = system: SK-MEL-2
[21] = system: NCI-H522
[22] = system: SW-620
[23] = system: 786-0
[24] = system: MOLT-4
[25] = system: NCI-H460
[26] = system: OVCAR-4
[27] = system: HCT-15
[28] = system: HT-29
[29] = system: ACHN
[30] = system: SF-295
[31] = system: K562
[32] = system: EKVX
[33] = system: IGROV-1
[34] = system: HOP-62
[35] = system: RPMI-8226
[36] = system: HCC 2998
[37] = system: U-251
[38] = system: COLO 205
[39] = system: HOP-92
[40] = system: M14
[41] = system: KM12
[42] = system: SNB-78
[43] = system: OVCAR-8
[44] = system: SR
[45] = system: SK-MEL-28
[46] = system: OVCAR-5
[47] = system: SK-OV-3
[48] = system: SN12C
[49] = system: HCT-116
[50] = system: UACC-62
[51] = system: SNB-75
[52] = system: LXFL 529
[53] = system: CAKI-1
[54] = system: M19-MEL
[55] = system: NCI-H226
[56] = system: SF-268
[57] = system: HOP-18

Cc1ccc2c(C3Cc4ccccc4N3C(=O)/C=C\C(=O)O)c(C)[nH]c2c1 (centres undefined)
GI50 [1]: > 100 µM (inactive)
GI50 [2]: 31.4 µM (inactive)
GI50 [3]: 19.6 µM (inactive)
GI50 [4]: 23.5 µM (inactive)
GI50 [5]: 30.6 µM (inactive)
GI50 [6]: > 100 µM (inactive)
GI50 [7]: 33.5 µM (inactive)
GI50 [8]: 47.2 µM (inactive)
GI50 [9]: 41.4 µM (inactive)
GI50 [10]: 19.6 µM (inactive)
GI50 [11]: 40.7 µM (inactive)
GI50 [12]: 41.7 µM (inactive)
GI50 [13]: 29.9 µM (inactive)
GI50 [14]: 60.3 µM (inactive)
GI50 [15]: 65.8 µM (inactive)
GI50 [16]: 67.9 µM (inactive)
GI50 [17]: 44.3 µM (inactive)
GI50 [18]: 41.3 µM (inactive)
GI50 [19]: 56.1 µM (inactive)
GI50 [20]: 17.5 µM (inactive)
GI50 [21]: 24.7 µM (inactive)
GI50 [22]: 33.1 µM (inactive)
GI50 [23]: 47.9 µM (inactive)
GI50 [24]: 29.5 µM (inactive)
GI50 [25]: > 100 µM (inactive)
GI50 [26]: > 100 µM (inactive)
GI50 [27]: 26.9 µM
GI50 [28]: 73.5 µM (inactive)
GI50 [29]: > 100 µM (inactive)
GI50 [30]: 28.8 µM (inactive)
GI50 [31]: 22.2 µM (inactive)
GI50 [32]: 78.7 µM (inactive)
GI50 [33]: 41 µM (inactive)
GI50 [34]: 30.1 µM (inactive)
GI50 [35]: 24.4 µM (inactive)
GI50 [36]: 73.8 µM (inactive)
GI50 [37]: 44.6 µM (inactive)
GI50 [38]: 22.3 µM (inactive)
GI50 [39]: 30.8 µM (inactive)
GI50 [40]: 44.4 µM (inactive)
GI50 [41]: 35.2 µM (inactive)
GI50 [42]: 17.5 µM (inactive)
GI50 [43]: 30.6 µM (inactive)
GI50 [44]: 25.1 µM (inactive)
GI50 [45]: 59 µM (inactive)
GI50 [46]: > 100 µM (inactive)
GI50 [47]: > 100 µM (inactive)
GI50 [48]: 49.8 µM (inactive)
GI50 [49]: 53 µM (inactive)
GI50 [50]: 29.2 µM (inactive)
GI50 [51]: 35.4 µM (inactive)
GI50 [52]: 18.7 µM (inactive)
GI50 [53]: 46.5 µM (inactive)
GI50 [54]: 67.5 µM (inactive)
GI50 [55]: > 100 µM (inactive)

CCc1cccc(CC)c1NC(=O)C(=O)Cc1nc2ccccc2o1
GI50 [1]: > 100 µM (inactive)
GI50 [2]: > 100 µM (inactive)
GI50 [3]: > 100 µM (inactive)
GI50 [4]: > 100 µM (inactive)
GI50 [5]: > 100 µM (inactive)
GI50 [6]: > 100 µM (inactive)
GI50 [7]: > 100 µM (inactive)
GI50 [56]: > 100 µM (inactive)
GI50 [8]: > 100 µM (inactive)
GI50 [10]: > 100 µM (inactive)
GI50 [11]: > 100 µM (inactive)
GI50 [13]: > 100 µM (inactive)
GI50 [14]: > 100 µM (inactive)
GI50 [15]: > 100 µM (inactive)
GI50 [16]: > 100 µM (inactive)
GI50 [17]: > 100 µM (inactive)
GI50 [18]: > 100 µM (inactive)
GI50 [19]: > 100 µM (inactive)
GI50 [20]: > 100 µM (inactive)
GI50 [21]: > 100 µM (inactive)
GI50 [22]: > 100 µM (inactive)
GI50 [23]: > 100 µM (inactive)
GI50 [24]: > 100 µM (inactive)
GI50 [25]: > 100 µM (inactive)
GI50 [26]: > 100 µM (inactive)
GI50 [27]: > 100 µM
GI50 [28]: > 100 µM (inactive)
GI50 [29]: > 100 µM (inactive)
GI50 [30]: > 100 µM (inactive)
GI50 [31]: > 100 µM (inactive)
GI50 [32]: > 100 µM (inactive)
GI50 [33]: > 100 µM (inactive)
GI50 [34]: > 100 µM (inactive)
GI50 [35]: > 100 µM (inactive)
GI50 [36]: > 100 µM (inactive)
GI50 [37]: > 100 µM (inactive)
GI50 [38]: > 100 µM (inactive)
GI50 [39]: > 100 µM (inactive)
GI50 [40]: > 100 µM (inactive)
GI50 [41]: > 100 µM (inactive)
GI50 [42]: > 100 µM (inactive)
GI50 [43]: > 100 µM (inactive)
GI50 [44]: > 100 µM (inactive)
GI50 [45]: > 100 µM (inactive)
GI50 [46]: > 100 µM (inactive)
GI50 [47]: > 100 µM (inactive)
GI50 [48]: > 100 µM (inactive)
GI50 [57]: > 100 µM (inactive)
GI50 [49]: > 100 µM (inactive)
GI50 [50]: > 100 µM (inactive)
GI50 [52]: > 100 µM (inactive)
GI50 [53]: > 100 µM (inactive)
GI50 [54]: > 100 µM (inactive)
GI50 [55]: > 100 µM (inactive)
